The values below come from PubChem BioAssay AID246 (DTP/NCI, 2004).

SMILES strings stand for the structures. Values joined by “and” are separate entries in the source; they are usually repeats but may differ in a detail not shown here. Identical values can stand only once. Inconclusive results and toxic doses are left out.

The assay concerns BDF1 mice, P1081 chloroleukemia ip, survival T/C. The assay is described as follows: NCI In Vivo Anticancer Drug Screen. Data for tumor model P1081 Chloroleukemia (intraperitoneal) in B6D2F1 (BDF1) mice. Conditions: endpoint: mean survival time, higher = longer survival. Here is the method:
The antitumor activity of compounds was measured in mice bearing transplantable tumors. Survival or tumor size were measured and the results are expressed as the measurement made in the treated group (T) divided by the measurement made in the vehicle treated control group (C). The tumor model used in this assay is P1081 Chloroleukemia (intraperitoneal) in B6D2F1 (BDF1) mice

[1] abbreviates: dose: 25.0 mg/kg/injection, schedule: Q01DX010 (ip), vehicle: saline.
Where [2] appears, read: dose: 50.0 mg/kg/injection, schedule: Q01DX010 (ip), vehicle: saline.
[3] abbreviates: dose: 100.0 mg/kg/injection, schedule: Q01DX010 (ip), vehicle: saline.
Where [4] appears, read: dose: 50.0 mg/kg/injection, schedule: Q01DX Z (ip), vehicle: carboxymethylcellulose (CMC).
Where [5] appears, read: dose: 5.0 mg/kg/injection, schedule: Q01DX010 (ip), vehicle: saline.
[6] abbreviates: dose: 6.25 mg/kg/injection, schedule: Q01DX Z (ip), vehicle: carboxymethylcellulose (CMC).
The mark [7] stands for this setting: dose: 10.0 mg/kg/injection, schedule: Q01DX010 (ip), vehicle: saline.
Setting [8] is: dose: 20.0 mg/kg/injection, schedule: Q01DX010 (ip), vehicle: saline.

In the case of `O=C1C(NC(=O)C2CCCCC2)=C(N2CC2)C(=O)C(NC(=O)C2CCCCC2)=C1N1CC1`, the T/C was 118 % of control (dose: 4.7 mg/kg/injection, schedule: Q01DX Z (ip), vehicle: carboxymethylcellulose (CMC)); 109 % of control and 103 % of control (dose: 9.4 mg/kg/injection, schedule: Q01DX Z (ip), vehicle: carboxymethylcellulose (CMC)); 117 % of control (dose: 18.8 mg/kg/injection, schedule: Q01DX Z (ip), vehicle: carboxymethylcellulose (CMC)); 90 % of control under setting [1]; 112 % of control and 117 % of control (dose: 37.5 mg/kg/injection, schedule: Q01DX Z (ip), vehicle: carboxymethylcellulose (CMC)); 90 % of control under setting [2]. Besides, the T/C is 109 % of control (dose: 75.0 mg/kg/injection, schedule: Q01DX Z (ip), vehicle: carboxymethylcellulose (CMC)); 90 % of control under setting [3]; 116 % of control (dose: 150.0 mg/kg/injection, schedule: Q01DX Z (ip), vehicle: carboxymethylcellulose (CMC)); 109 % of control (dose: 300.0 mg/kg/injection, schedule: Q01DX Z (ip), vehicle: carboxymethylcellulose (CMC)); 88 % of control (dose: 600.0 mg/kg/injection, schedule: Q01DX Z (ip), vehicle: carboxymethylcellulose (CMC)).

With `CCN(CC)CCNc1ccc(C)c2sc3ccccc3c(=O)c12`, the T/C is 87 % of control (dose: 1.56 mg/kg/injection, schedule: Q01DX Z (ip), vehicle: methylcellulose (MC)); 88 % of control (dose: 6.25 mg/kg/injection, schedule: Q01DX Z (ip), vehicle: methylcellulose (MC)); 90 % of control (dose: 6.3 mg/kg/injection, schedule: Q01DX Z (ip), vehicle: methylcellulose (MC)); 91 % of control (dose: 12.5 mg/kg/injection, schedule: Q01DX Z (ip), vehicle: methylcellulose (MC)); 110 % of control and 122 % of control under setting [1]; 95 % of control (dose: 25.0 mg/kg/injection, schedule: Q01DX Z (ip), vehicle: methylcellulose (MC)). Besides, the T/C is, setting by setting: under setting [2], 150 % of control; (dose: 50.0 mg/kg/injection, schedule: Q01DX Z (ip), vehicle: methylcellulose (MC)) 96 % of control; under setting [3], 122 % of control and 95 % of control; (dose: 100.0 mg/kg/injection, schedule: Q01DX Z (ip), vehicle: methylcellulose (MC)) 101 % of control.

Take `CS(=O)(=O)OCC(O)C(O)COS(C)(=O)=O` (stereo not given): the T/C by setting is: (dose: 94.0 mg/kg/injection, schedule: Q01DX Z (ip), vehicle: saline) 86 % of control; (dose: 188.0 mg/kg/injection, schedule: Q01DX Z (ip), vehicle: saline) 107 % of control; (dose: 375.0 mg/kg/injection, schedule: Q01DX Z (ip), vehicle: saline) 95 % of control; (dose: 750.0 mg/kg/injection, schedule: Q01DX Z (ip), vehicle: saline) 122 % of control; (dose: 1500.0 mg/kg/injection, schedule: Q01DX Z (ip), vehicle: saline) 166 % of control; (dose: 3000.0 mg/kg/injection, schedule: Q01DX Z (ip), vehicle: saline) 173 % of control.

`CS(=O)(=O)OCCN(CCOS(C)(=O)=O)c1ccc(N=O)cc1`: the T/C (dose: 0.5 mg/kg/injection, schedule: Q01DX010 (ip), vehicle: saline) is 122 % of control; the T/C (dose: 1.0 mg/kg/injection, schedule: Q01DX010 (ip), vehicle: saline) was 104 % of control; the T/C (dose: 62.5 micrograms/kg/injection, schedule: Q01DX010 (ip), vehicle: saline) is 155 % of control; the T/C (dose: 125.0 micrograms/kg/injection, schedule: Q01DX010 (ip), vehicle: saline) was 194 % of control; the T/C (dose: 250.0 micrograms/kg/injection, schedule: Q01DX010 (ip), vehicle: saline) is 277 % of control; the T/C (dose: 500.0 micrograms/kg/injection, schedule: Q01DX010 (ip), vehicle: saline) was 238 % of control.

For the compound `C[C@]12C=CC(=O)C=C1CC[C@@H]1[C@@H]2C(=O)C[C@@]2(C)[C@H]1CC[C@]2(O)C(=O)CO`, the T/C (dose: 6.25 mg/kg/injection, schedule: Q01DX Z (sc), vehicle: steriod suspending solution) was 114 % of control; the T/C (dose: 12.5 mg/kg/injection, schedule: Q01DX010 (sc), vehicle: steriod suspending solution) was 93 % of control and 100 % of control; the T/C (dose: 12.5 mg/kg/injection, schedule: Q01DX Z (sc), vehicle: steriod suspending solution) is 111 % of control and 124 % of control; the T/C (dose: 25.0 mg/kg/injection, schedule: Q01DX010 (sc), vehicle: steriod suspending solution) is 112 % of control and 100 % of control and 101 % of control; the T/C (dose: 25.0 mg/kg/injection, schedule: Q01DX Z (sc), vehicle: steriod suspending solution) was 105 % of control and 117 % of control; the T/C (dose: 50.0 mg/kg/injection, schedule: Q01DX010 (sc), vehicle: steriod suspending solution) was 107 % of control and 95 % of control and 100 % of control. Further, the T/C runs as follows: (dose: 50.0 mg/kg/injection, schedule: Q01DX Z (sc), vehicle: steriod suspending solution) 105 % of control and 91 % of control; (dose: 100.0 mg/kg/injection, schedule: Q01DX010 (sc), vehicle: steriod suspending solution) 112 % of control and 92 % of control and 93 % of control; (dose: 100.0 mg/kg/injection, schedule: Q01DX Z (sc), vehicle: steriod suspending solution) 92 % of control and 102 % of control; (dose: 200.0 mg/kg/injection, schedule: Q01DX010 (sc), vehicle: steriod suspending solution) 92 % of control and 93 % of control; (dose: 200.0 mg/kg/injection, schedule: Q01DX Z (sc), vehicle: steriod suspending solution) 98 % of control.

Turning to `Cn1cnc([N+](=O)[O-])c1Sc1ncnc2nc[nH]c12`, the T/C is 165 % of control (dose: 25.0 mg/kg/injection, schedule: Q01DX Z (ip), vehicle: carboxymethylcellulose (CMC)); 150 % of control under setting [4]; 104 % of control (dose: 100.0 mg/kg/injection, schedule: Q01DX Z (ip), vehicle: carboxymethylcellulose (CMC)).

`Nc1ncnc2c1ccn2C1OC(CO)C(O)C1O` (stereo not given): the T/C was 98 % of control (dose: 0.04 mg/kg/injection, schedule: Q01DX Z (ip), vehicle: carboxymethylcellulose (CMC)); 94 % of control (dose: 0.08 mg/kg/injection, schedule: Q01DX Z (ip), vehicle: carboxymethylcellulose (CMC)); 101 % of control (dose: 0.16 mg/kg/injection, schedule: Q01DX Z (ip), vehicle: carboxymethylcellulose (CMC)); 110 % of control and 112 % of control (dose: 0.31 mg/kg/injection, schedule: Q01DX Z (ip), vehicle: carboxymethylcellulose (CMC)); 108 % of control (dose: 0.63 mg/kg/injection, schedule: Q01DX Z (ip), vehicle: carboxymethylcellulose (CMC)); 88 % of control (dose: 1.25 mg/kg/injection, schedule: Q01DX Z (ip), vehicle: carboxymethylcellulose (CMC)).

As to `S=P(N1CCOCC1)(N1CC1)N1CC1`, the T/C reads like this: (dose: 2.5 mg/kg/injection, schedule: Q01DX010 (ip), vehicle: saline) 116 % of control and 100 % of control; under setting [5], 105 % of control and 100 % of control; under setting [6], 93 % of control; under setting [7], 110 % of control and 122 % of control; under setting [8], 105 % of control.

`O=c1[nH]c(=O)n(C2CC(O)C(CO)O2)cc1F` (stereo not given): the T/C under setting [5] was 110 % of control; the T/C under setting [6] is 124 % of control; the T/C under setting [7] is 120 % of control and 104 % of control; the T/C (dose: 12.5 mg/kg/injection, schedule: Q01DX Z (ip), vehicle: carboxymethylcellulose (CMC)) was 122 % of control; the T/C under setting [8] was 110 % of control; the T/C (dose: 40.0 mg/kg/injection, schedule: Q01DX010 (ip), vehicle: saline) is 155 % of control and 250 % of control. The T/C under setting [4] is 172 % of control.

On to `Nc1nc(N)c2nc(CNc3ccc(C(=O)NC(CCC(=O)O)C(=O)O)cc3)cnc2n1` (stereo not given), for which the T/C runs as follows: (dose: 0.05 mg/kg/injection, schedule: Q01DX010 (ip), vehicle: other) 120 % of control; (dose: 0.2 mg/kg/injection, schedule: Q01DX010 (ip), vehicle: other) 160 % of control and 170 % of control; (dose: 0.4 mg/kg/injection, schedule: Q01DX010 (ip), vehicle: other) 90 % of control; (dose: 8.0 micrograms/kg/injection, schedule: Q01DX Z (ip), vehicle: alkali diluted with saline) 117 % of control; (dose: 16.0 micrograms/kg/injection, schedule: Q01DX Z (ip), vehicle: alkali diluted with saline) 107 % of control; (dose: 31.0 micrograms/kg/injection, schedule: Q01DX Z (ip), vehicle: alkali diluted with saline) 99 % of control.

As for `Cc1cc2nc3c(=O)[nH]c(=O)nc-3n(CC(O)C(O)C(O)C(O)CO)c2cc1C` (stereo not given), the T/C was 88 % of control and 100 % of control under setting [2]; 88 % of control and 90 % of control under setting [3]; 90 % of control and 100 % of control (dose: 200.0 mg/kg/injection, schedule: Q01DX010 (ip), vehicle: saline); 100 % of control (dose: 400.0 mg/kg/injection, schedule: Q01DX010 (ip), vehicle: saline).
